Results taken from the NIST ThermoML archive (doi:10.1021/acs.jced.6b00354).

Details: 101.33 kPa, Liquid, Vibrating tube method

CC(=O)N(C)C [N,N-dimethylethanamide]
Details	mass density [kg/m3]
283.15 K	950.189
288.15 K	945.589
293.15 K	940.983
298.15 K	936.38
303.15 K	931.762
308.15 K	927.145
313.15 K	922.523
318.15 K	917.893
